Laboratory results as given in patent publication US20090238761A1, “Novel Aryl Piperazine Derivatives With Medical Utility” (Universita Degli Studi Di Siena, priority 2005, published 2009).

Compound | melting point [°C]
O=C(NCCCCN1CCN(c2ccccc2)CC1)c1cc2ccccc2o1 | 149 to 150
Cc1cccc(N2CCN(CCCCNC(=O)c3cc4ccccc4o3)CC2)c1C | 151 to 152
COc1cccc(N2CCN(CCCCNC(=O)c3cc4ccccc4o3)CC2)c1 | 104 to 105
Cc1cccc(N2CCN(CCCCNC(=O)c3cc4ccccc4o3)CC2)n1 | 107 to 109
O=C(NCCCCN1CCN(c2cnc3ccccc3c2)CC1)c1ccccc1 | 124 to 125
O=C(NCCCCN1CCN(c2cnc3ccccc3c2)CC1)c1cc2ccccc2cn1 | 153 to 154
O=C(NCCCCN1CCN(c2ccccc2)CC1)c1cccnc1 | 119 to 120
Cc1cccc(N2CCN(CCCCNC(=O)c3ccccc3)CC2)n1 | 102 to 103
COc1cccc(N2CCN(CCCCNC(=O)c3ccccc3)CC2)n1 | 120 to 121
O=C1c2cc3ccccc3n2CCN1CCCCN1CCN(c2cccc(Cl)c2)CC1 [Compound 1-9, 2-[4-[4-(3-Chlorophenyl)piperazin-1-yl]butyl]-3,4-dihydropyrazino[1,2-a]indol-1(2H)-one] | 180 to 181
Cc1cccc(N2CCN(CCCCN3CCn4c(cc5ccccc54)C3=O)CC2)c1 [Compound 1-11] | 155 to 156
Cc1cccc(N2CCN(CCCCCOc3cc4ccccc4cn3)CC2)c1 [Compound 1-12, 3-[5-(4-m-Tolylpiperazin-1-yl)pentyloxy]isoquinoline] | 94 to 95
COc1cccc(N2CCN(CCCCNC(=O)c3ccccc3)CC2)c1 [Compound 1-45, N-(4-(4-(3-Methoxyphenyl)piperazin-1-yl)butyl)benzamide] | 111 to 112
Cc1cccc(N2CCN(CCCCNC(=O)c3ccccc3)CC2)c1 [Compound 1-46, N-(4-(4-m-Tolylpiperazin-1-yl)butyl)benzamide] | 126 to 127
